Measurements as given in PubChem BioAssay AID2060361 (Molecular Pharmacology Branch, DTP, NCI, 2025).

Test system: 463943-066-T-J2-PDC tumor spheroids with HUVEC/MSC, viability
Experiment: Anticancer human tumor 463943-066-T-J2-PDC patient-derived colon adenocarcinoma cell line growth inhibition [TAK]
Settings: for IC50: curve of first compound; for viability, T/C: stronger effect = lower value
Outline: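 Tumor cells were grown as spheroids with HUVEC and hMSC (60:25:15) and treated with targeted agents combined with TAK-243 or ipatasertib. Drugs were tested in half-log steps down from near the clinical Cmax, or from 10 microM where Cmax was unknown.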

[1] = second compound 0.3 µM, first compound 0.0316 µM
[2] = second compound 0.3 µM, first compound 0.1 µM
[3] = second compound 0.3 µM, first compound 0.316 µM
[4] = second compound 0.3 µM, first compound 1 µM
[5] = second compound 0.949 µM, first compound 0.0316 µM
[6] = second compound 0.949 µM, first compound 0.1 µM
[7] = second compound 0.949 µM, first compound 0.316 µM
[8] = second compound 0.949 µM, first compound 1 µM
[9] = second compound 3 µM, first compound 0.0316 µM
[10] = second compound 3 µM, first compound 0.1 µM
[11] = second compound 3 µM, first compound 0.316 µM
[12] = second compound 3 µM, first compound 1 µM
[13] = second compound 9.49 µM, first compound 0.0316 µM
[14] = second compound 9.49 µM, first compound 0.1 µM
[15] = second compound 9.49 µM, first compound 0.316 µM
[16] = second compound 9.49 µM, first compound 1 µM
[17] = second compound 30 µM, first compound 0.0316 µM
[18] = second compound 30 µM, first compound 0.1 µM
[19] = second compound 30 µM, first compound 0.316 µM
[20] = second compound 30 µM, first compound 1 µM
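Also: spheroids exposed to drugs for seven days.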
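For viability, T/C in this document: 100% = DMSO vehicle control wells.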

| SMILES | IC50 (second compound 0.3 µM) [µM] | IC50 (second compound 0.949 µM) [µM] | IC50 (second compound 3 µM) [µM] | IC50 (second compound 9.49 µM) [µM] | IC50 (second compound 30 µM) [µM] | viability, T/C [1] [%] | viability, T/C [2] [%] | viability, T/C [3] [%] | viability, T/C [4] [%] | viability, T/C [5] [%] | viability, T/C [6] [%] | viability, T/C [7] [%] | viability, T/C [8] [%] | viability, T/C [9] [%] | viability, T/C [10] [%] | viability, T/C [11] [%] | viability, T/C [12] [%] | viability, T/C [13] [%] | viability, T/C [14] [%] | viability, T/C [15] [%] | other results |
| --- | --- | --- | --- | --- | --- | --- | --- | --- | --- | --- | --- | --- | --- | --- | --- | --- | --- | --- | --- | --- | --- |
| COc1c(OCCCN2CCOCC2)ccc2c3n(c(=NC(=O)c4cnc(N)nc4)nc12)CCN3 + CC(C)NCC(C(=O)N1CCN(c2ncnc3c2C(C)CC3O)CC1)c1ccc(Cl)cc1 | > 1 | > 1 | > 1 | > 1 | > 1 | 85 | 77.1 | 70.3 | 66.5 | 75.1 | 78.2 | 77.2 | 68.1 | 83.5 | 79.8 | 79.8 | 77 | 86.4 | 73.6 | 75.6 | viability, T/C (second compound 0.3 µM, first compound 0.00316 µM): 91.4%; viability, T/C (second compound 0.3 µM, first compound 0.01 µM): 91.3%; viability, T/C (second compound 0.949 µM, first compound 0.00316 µM): 88.6%; viability, T/C (second compound 0.949 µM, first compound 0.01 µM): 93.1%; viability, T/C (second compound 3 µM, first compound 0.00316 µM): 93.7%; viability, T/C (second compound 3 µM, first compound 0.01 µM): 86.8%; viability, T/C (second compound 9.49 µM, first compound 0.00316 µM): 81.3%; viability, T/C (second compound 9.49 µM, first compound 0.01 µM): 85.5%; viability, T/C [16]: 71.2%; viability, T/C (second compound 30 µM, first compound 0.00316 µM): 85.6%; viability, T/C (second compound 30 µM, first compound 0.01 µM): 87.5%; viability, T/C [17]: 74.6%; viability, T/C [18]: 73.9%; viability, T/C [19]: 66.5%; viability, T/C [20]: 71.2% |
| Cc1nc(NC(=O)N2CCCC2C(N)=O)sc1-c1ccnc(C(C)(C)C(F)(F)F)c1 (stereo not given) + CC(C)NCC(C(=O)N1CCN(c2ncnc3c2C(C)CC3O)CC1)c1ccc(Cl)cc1 | > 10 | > 10 | > 10 | > 10 | > 10 | 106 | 99.8 | 105 | 87.8 | 104 | 89.9 | 91.8 | 89.2 | 98 | 100 | 88.4 | 88.8 | 89.6 | 95.3 | 90.7 | viability, T/C (second compound 0.3 µM, first compound 3.16 µM): 81%; viability, T/C (second compound 0.3 µM, first compound 10 µM): 79.3%; viability, T/C (second compound 0.949 µM, first compound 3.16 µM): 78.4%; viability, T/C (second compound 0.949 µM, first compound 10 µM): 78.1%; viability, T/C (second compound 3 µM, first compound 3.16 µM): 81.1%; viability, T/C (second compound 3 µM, first compound 10 µM): 75%; viability, T/C [16]: 86.9%; viability, T/C (second compound 9.49 µM, first compound 3.16 µM): 79.5%; viability, T/C (second compound 9.49 µM, first compound 10 µM): 80.7%; viability, T/C [17]: 92.7%; viability, T/C [18]: 94.4%; viability, T/C [19]: 88.2%; viability, T/C [20]: 92.8%; viability, T/C (second compound 30 µM, first compound 3.16 µM): 90.5%; viability, T/C (second compound 30 µM, first compound 10 µM): 76.6% |
